Target: T1, human alpha-7 nAChR (Homo sapiens, UniProt P36544)
T1 construct: expressed in transfected cells; host or cells: Xenopus laevis oocytes (cRNA injection)
Test: Two-electrode voltage clamp of alpha-7 nAChR expressed in Xenopus oocytes (net charge)
Format: cell-based
Details: area under the curve of current vs. time; for Charge +C: compound together with choline or ACh, includes PAM and ago-PAM activity; for Charge Alone: compound alone acting as an allosteric agonist; call rule not given here
Description: The human alpha-7 nAChR receptor clone was obtained from Dr. Jon Lindstrom {University of Pennsylvania, Philadelphia, Pa.), aid the RIC-3 clone from Dr. Millet Treinin (Hebrew University, Jerusalem, Israel) for the purpose of co-injection with a7 to improve the level and speed of receptor expression (Halevi et al., 2003). After linearization and purification of cloned cDNA's, RNA, transcripts were prepared rising the appropriate mMessage mMachine kit tiom Ambion (Austin, Tex.).
Expression in X, laeivis Oocytes
Oocytes were obtained from mature (>9 cm) female Xenopus laeivis African frogs (Nasco, Ft. Atkinson, Wis.). Frogs were anesthetized in 0.7 g/L solution of ethyl 3-aminobenzoate methanesulfonate buffered with sodium bicarbonate, and oocytes were surgically removed through an abdominal incision. Harvested oocytes were treated with 1.25 mg/ml collagenase (Worthington Biochemicals, Freehold, N.J.) in calcium-free Barth's solution (88 mM NaCl, 1 mM KCl, 2.38 mM NaHCO3, 0.82 mM MgSO4, 15 mM HEPES, 12 mg/L tetracycline, pH 7.6) for 3-4 hours to remove the follicular layer. Stage-5 oocytes were isolated and injected with 50 nL (5-20 ng) of human alpha-7 and RIC-3 cRNA. Suitable levels of receptor expression were typically achieved 2-6 days after injection of cRNA. For experiments involving the PAM 4BP-TQS/GAT-107, where standard levels of expression result in ion currents too large to be recorded in voltage clamp, experiments were typically conducted 1-3 days after RNA injection.
Two-electrode voltage clamp experiments were conducted using OpusXpress6000A (Molecular Devices, Sunnyvale, Calif.), an integrated system that provides automated impalement and voltage clamp of up to eight oocytes in parallel. Both the current and voltage electrodes were filled with 3 M KCl, and oocytes were clamped at a holding potential of −60 mV. Data were collected at 50 Hz and filtered at 20 Hz. The oocytes were bath-perfused with Ringer's solution (115 mM NaCl, 10 mM HEPES, 2.5 mM KCl, 1.8 mM CaCl2, pH 7.3), and agonist solutions were delivered from a 96-well drug plate using disposable tips. Flow rates were set at 2 mL/min, with each drug or control solution delivered in 12 s durations, followed˜by 181 s washouts with Ringer's unless noted otherwise.
Experimental Protocols and Data Analysis
Responses of human alpha-7 receptors to agonists were measured as both peek current and net charge measured over a 120 s period beginning with the compound application (Papke and Papke, 2002). […] In experiments involving positive allosteric modulators (PAMs), the fast desensitization of alpha-7 was eliminated, allowing peak currents to be used as a valid measurement of the receptor-mediated responses (Wang et al., 2012; Williams et al., 2011).
Oocytes received two control ACh applications prior to receiving any drug in order to establish a steady reference response, and they received one or more control ACh applications at the end of all experiments. For experiments involving drug incubation through bath applications, all responses were normalized to the average of two ACh control responses taken immediately prior to the switch of bath solution, for each cell individually. These normalization procedures had the effect of compensating for differing levels of receptor expression among the multiple oocytes used in each experiment. Each experiment was conducted on at least four oocytes, with mean values and standard errors (S.E.M.) calculated from their normalized responses. […]

T1 sequence (P36544 23-502): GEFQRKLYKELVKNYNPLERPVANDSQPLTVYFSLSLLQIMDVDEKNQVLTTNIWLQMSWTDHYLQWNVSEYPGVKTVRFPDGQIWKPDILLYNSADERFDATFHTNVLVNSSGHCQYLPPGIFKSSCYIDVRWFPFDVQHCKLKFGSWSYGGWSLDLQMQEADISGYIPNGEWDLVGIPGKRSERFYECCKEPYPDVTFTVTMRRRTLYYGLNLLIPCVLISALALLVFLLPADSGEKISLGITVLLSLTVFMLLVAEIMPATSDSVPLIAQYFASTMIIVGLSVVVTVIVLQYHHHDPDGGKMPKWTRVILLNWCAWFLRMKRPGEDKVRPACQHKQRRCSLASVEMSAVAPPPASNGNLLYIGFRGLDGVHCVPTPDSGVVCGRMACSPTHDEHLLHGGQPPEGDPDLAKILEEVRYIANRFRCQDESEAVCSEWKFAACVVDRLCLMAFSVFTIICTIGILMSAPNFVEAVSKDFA

Row | Compound | Charge +C | Charge Alone
1 | NS(=O)(=O)c1ccc2c(c1)[C@H]1C=CC[C@H]1[C@@H](c1ccc(NC(=O)OC3CCCCC3)cc1)N2 (stereo in doubt) [Compound 61, cyclohexyl(4-(8-sulfamoyl-3a,4,5,9b-tetrahydro-3H-cyclopenta[c]quinolin-4-yl)phenyl)carbamate] | 85 | –
2 | NS(=O)(=O)c1ccc2c(c1)[C@H]1C=CC[C@H]1[C@@H](c1ccc(NC(=O)OC34CC5CC(CC(C5)C3)C4)cc1)N2 (stereo in doubt) [Compound 62, adamantan-1-yl (4-(8-sulfamoyl-3a,4,5,9b-tetrahydro-3H-cyclopenta[c]quinolin-4-yl)phenyl)carbamate] | 35 | –
3 | NS(=O)(=O)c1ccc2c(c1)[C@H]1C=CC[C@H]1[C@@H](c1ccc(NC(=O)OC3C4CC5CC(C4)CC3C5)cc1)N2 (stereo in doubt) [Compound 63, adamantan-2-yl (4-(8-sulfamoyl-3a,4,5,9b-tetrahydro-3H-cyclopenta[c]quinolin-4-yl)phenyl)carbamate] | 25 | 5
4 | CC(C)(C)CCCc1ccc([C@H]2Nc3ccc(S(N)(=O)=O)cc3[C@H]3C=CC[C@H]32)cc1 (stereo in doubt) [Compound 66, 4-(4-(4,4-dimethylpentyl)phenyl)-3a,4,5,9b-tetrahydro-3H-cyclopenta[c]quinoline-8-sulfonamide] | 1240 | 330
5 | CC(C)OC(=O)Nc1ccc([C@H]2Nc3ccc(S(N)(=O)=O)cc3[C@H]3C=CC[C@H]32)cc1 (stereo in doubt) [Compound 68, isopropyl (4-(8-sulfamoyl-3a,4,5,9b-tetrahydro-3H-cyclopenta[c]quinolin-4-yl)phenyl)carbamate] | 156 | 80
6 | CC(C)(C)CC(=O)Oc1ccc([C@H]2Nc3ccc(S(N)(=O)=O)cc3[C@H]3C=CC[C@H]32)cc1 (stereo in doubt) [Compound 69, 4-(8-sulfamoyl-3a,4,5,9b-tetrahydro-3H-cyclopenta[c]quinolin-4-yl)phenyl 3,3-dimethylbutanoate] | 582 | 25
7 | CC(C)(C)COC(=O)c1ccc([C@H]2Nc3ccc(S(N)(=O)=O)cc3[C@H]3C=CC[C@H]32)cc1 (stereo in doubt) [Compound 70, neopentyl4-(8-sulfamoyl-3a,4,5,9b-tetrahydro-3H-cyclopenta[c]quinolin-4-yl)benzoate] | 487 | 52
8 | NS(=O)(=O)c1ccc2c(c1)[C@H]1C=CC[C@H]1[C@@H](c1csc(Br)n1)N2 (stereo in doubt) [Compound 85, 4-(2-bromothiazol-4-yl)-3a,4,5,9b-tetrahydro-3H-cyclopenta[c]quinoline-8-sulfonamide] | 166 | 10
9 | NS(=O)(=O)c1ccc2c(c1)[C@H]1C=CC[C@H]1[C@@H](c1ccc3sccc3c1)N2 (stereo in doubt) [Compound 96, 4-(benzo[b]thiophen-5-yl)-3a,4,5,9b-tetrahydro-3H-cyclopenta[c]quinoline-8-sulfonamide] | 156 | 116
10 | NS(=O)(=O)c1ccc2c(c1)[C@H]1C=CC[C@H]1[C@@H](c1ccc(Br)cn1)N2 (stereo in doubt) [Compound 97, 4-(5-bromopyridin-2-yl)-3a,4,5,9b-tetrahydro-3H-cyclopenta[c]quinoline-8-sulfonamide] | 357 | 7
11 | CC(C)NS(=O)(=O)c1ccc2c(c1)[C@H]1C=CC[C@H]1[C@@H](c1ccc(Br)cc1)N2 (stereo in doubt) [Compound 100, 4-(4-bromophenyl)-N-isopropyl-3a,4,5,9b-tetrahydro-3H-cyclopenta[c]quinoline-8-sulfonamide] | Inactive | Inactive
12 | CC(C)(C)NS(=O)(=O)c1ccc2c(c1)[C@H]1C=CC[C@H]1[C@@H](c1ccc(Br)cc1)N2 (stereo in doubt) [Compound 101, 4-(4-bromophenyl)-N-(tert-butyl)-3a,4,5,9b-tetrahydro-3H-cyclopenta[c]quinoline-8-sulfonamide] | Inactive | Inactive
13 | O=S(=O)(NC1CCCCC1)c1ccc2c(c1)[C@H]1C=CC[C@H]1[C@@H](c1ccc(Br)cc1)N2 (stereo in doubt) [Compound 102, 4-(4-bromophenyl)-N-cyclohexyl-3a,4,5,9b-tetrahydro-3H-cyclopenta[c]quinoline-8-sulfonamide] | Inactive | Inactive
14 | O=S(=O)(Nc1ccccc1)c1ccc2c(c1)[C@H]1C=CC[C@H]1[C@@H](c1ccc(Br)cc1)N2 (stereo in doubt) [Compound 103, 4-(4-bromophenyl)-N-phenyl-3a,4,5,9b-tetrahydro-3H-cyclopenta[c]quinoline-8-sulfonamide] | Inactive | Inactive
15 | O=S(=O)(NCC1CC1)c1ccc2c(c1)[C@H]1C=CC[C@H]1[C@@H](c1ccc(Br)cc1)N2 (stereo in doubt) [Compound 105, 4-(4-bromophenyl)-N-(cyclopropylmethyl)-3a,4,5,9b-tetrahydro-3H-cyclopenta[c]quinoline-8-sulfonamide] | Inactive | Inactive
16 | CCCNS(=O)(=O)c1ccc2c(c1)[C@H]1C=CC[C@H]1[C@H](c1ccc(Br)cc1)N2 (stereo in doubt) [Compound 106, 4-(4-bromophenyl)-N-propyl-3a,4,5,9b-tetrahydro-3H-cyclopenta[c]quinoline-8-sulfonamide] | Inactive | Inactive
17 | CCCNS(=O)(=O)c1ccc2c(c1)[C@H]1C=CC[C@H]1[C@@H](c1ccc(Br)cc1)N2 (stereo in doubt) [Compound 107, 4-(4-bromophenyl)-N-propyl-3a,4,5,9b-tetrahydro-3H-cyclopenta[c]quinoline-8-sulfonamide] | Inactive | Inactive
18 | C=C(C)CNS(=O)(=O)c1ccc2c(c1)[C@H]1C=CC[C@H]1[C@@H](c1ccc(Br)cc1)N2 (stereo in doubt) [Compound 108, 4-(4-bromophenyl)-N-(2-methylallyl)-3a,4,5,9b-tetrahydro-3H-cyclopenta[c]quinoline-8-sulfonamide] | Inactive | Inactive
19 | CCC(C)CNS(=O)(=O)c1ccc2c(c1)[C@H]1C=CC[C@H]1[C@@H](c1ccc(Br)cc1)N2 (stereo in doubt) [Compound 109, 4-(4-bromophenyl)-N-(2-methylbutyl)-3a,4,5,9b-tetrahydro-3H-cyclopenta[c]quinoline-8-sulfonamide] | Inactive | Inactive
20 | CCCCNS(=O)(=O)c1ccc2c(c1)[C@H]1C=CC[C@H]1[C@@H](c1ccc(Br)cc1)N2 (stereo in doubt) [Compound 110, 4-(4-bromophenyl)-N-butyl-3a,4,5,9b-tetrahydro-3H-cyclopenta[c]quinoline-8-sulfonamide] | Inactive | Inactive
21 | CCCNS(=O)(=O)c1ccc2c(c1)[C@H]1C=CC[C@H]1[C@H](c1c(C)c(C)cc(C)c1C)N2 (stereo in doubt) [Compound 111, N-propyl-4-(2,3,5,6-tetramethylphenyl)-3a,4,5,9b-tetrahydro-3H-cyclopenta[c]quinoline-8-sulfonamide] | Inactive | Inactive

Source: patent publication US11299496B2, “Ligands for alpha-7 nicotinic acetylcholine receptors and methods of treating neurological and inflammatory conditions” (Northeastern University, priority 2014, dated 2022)
